US12485073B2, “Oral care compositions and methods of use” (Colgate-Palmolive Company, priority 2019, dated 2025)

How the values were obtained:
[1] = 1H NMR analysis of MeSA hydrolysis in aqueous alkaline solution; assay type: physicochemical; details: for effect of added amino acid or derivative on MeSA hydrolysis rate: pH 9.0, aqueous solution (FIG. 4, 7, 8); for ester hydrolysis: with or without Gly at pH 9.0, within 48 hours (FIG. 4)
Source text: Direct detection and quantification of MeSA in aqueous solution is challenging due to its low water solubility. While ^1H NMR provides structural and quantitative information of the specific substrate in the aqueous mixture, the greatest limitation of NMR is its poor sensitivity. […] Typically, a high concentration of substrate is needed for NMR quantitative analysis. However, to quantify a substrate by NMR at concentrations at or below about 0.1 wt. % in water is not possible without effective solvent suppression. To overcome this hurdle, composite n/2 pulses were applied prior to pre-saturation pulses to effectively suppress the water peak of the sample.
Studies were conducted to test how pH affects MeSA hydrolysis.
Next, the phenolic hydroxyl group was examined to test whether it affects hydrolysis of MeSA at basic pH. The hydrolysis of two analogue compounds, namely, methyl benzoate and methyl paraben were studied as comparators.
The t-butyloxycarbonyl (BOC) and methyl ester groups are routinely used in peptide synthesis to protect amine and carboxyl group of amino acid from reaction.

[2] = Methyl salicylate concentration versus pH in presence of arginine, UV/Vis (FIG. 9); assay type: physicochemical
Source text: As shown, degradation of methyl salicylate can be substantially mitigated even in the presence of an amino acid under accelerated aging conditions. A curve for the relationship between pH and the above compositions is illustrated in FIG. 9.

Structure (SMILES) | effect of added amino acid or derivative on MeSA hydrolysis rate [1] | ester hydrolysis [1] | also measured
COC(=O)CNC(=O)OC(C)(C)C [Boc-Gly methyl ester, reference compound] | significantly reduces to the same level as that of MeSA without Gly |  | 
CC(C)(C)OC(=O)NCC(=O)O [Boc-Gly-OH, reference compound] | much faster than that of MeSA alone |  | 
COC(=O)CN [Gly methyl ester, reference compound] | slightly faster than that of MeSA only |  | 
COC(=O)c1ccccc1O [MeSA, Methyl salicylate] |  | significant hydrolysis | reduction of peak intensity of the methyoxy group of MeSA ([1]; after 12 hr hydrolysis, 0.05 wt % MeSA + 0.025 wt % glycine, pH 9.0, 25° C.): about 30%; degradation of MeSA concentration (hydrolysis rate) as solution is more basic ([1]; water without amino acid, pH range 8 to 11.5 (FIG. 3)): becomes faster; MeSA hydrolysis ([1]; with Gly at pH 7.0): drastically reduced; MeSA degradation ([2]; pH 7.5): dramatically increases; preservation of MeSA ([2]; pH at 6.5 or 7.0): good preservation
NCCCC[C@H](N)C(=O)O [lysine] | accelerate the degradation of MeSA |  | 
COC(=O)c1ccccc1 [methyl benzoate, reference compound] |  | no ester hydrolysis | 
COC(=O)c1ccc(O)cc1 [methyl paraben, reference compound] |  | no ester hydrolysis | 
